From patent US20260224589A1 (priority 2023, published 2026)
Where two headings read alike, the source gives them in different places.

System: AsPC-1 cells
Experiment: phospho-ERK HTRF assay in AsPC-1 cells, 4 h treatment
Type: cell-based
Settings: Homo sapiens, ASPC1
[1] = AsPC-1, 4H, Table 1a class column, read-out: pERK IC50 activity range (*)
[2] = AsPC-1, 4H, Table 1a, read-out: PERK IC50 (AsPC-1, 4H)
[3] = AsPC-1, 4h, Table 1b, read-out: PERK IC50 (AsPC-1, 4h)

CN(C)C(=O)c1nn2c(c1Cl)CN(c1nc(OC[C@@]34CCCN3C/C(=C\F)C4)nc3c1COC(c1c(C(F)(F)F)ccc(N)c1F)C3)CCC2 (stereo partly drawn) [compound 233, 5-(7-(3-amino-2-fluoro-6-(trifluoromethyl)phenyl)-2-(((S,Z)-2-(fluoromethylene)tetrahydro-1H-pyrrolizin-7a(5H)-yl)methoxy)-7,8-dihydro-5H-pyrano[4,3-d]pyrimidin-4-yl)-3-chloro-N,N-dimethyl-5,6,7,8-tetrahydro-4H-pyrazolo[1,5-a][1,4]diazepine-2-carboxamide]
IC50 [1]: 10 to 30 nM | IC50 [2]: 30 nM

CN(C)C(=O)c1nn2c(c1Cl)CN(c1nc(OC[C@@]34CCCN3C[C@H](F)C4)nc3c1CO[C@H](c1cc(N)cc(Cl)c1C(F)(F)F)C3)CCC2 [compound 234, 5-((S)-7-(5-amino-3-chloro-2-(trifluoromethyl)phenyl)-2-(((2R,7aS)-2-fluorotetrahydro-1H-pyrrolizin-7a(5H)-yl)methoxy)-7,8-dihydro-5H-pyrano[4,3-d]pyrimidin-4-yl)-3-chloro-N,N-dimethyl-5,6,7,8-tetrahydro-4H-pyrazolo[1,5-a][1,4]diazepine-2-carboxamide]
IC50 [3]: < 10 nM

CN(C)C(=O)c1nn2c(c1Cl)CN(c1nc(OC[C@@]34CCCN3C/C(=C\F)C4)nc3c1CO[C@H](c1cc(N)cc(Cl)c1C(F)(F)F)C3)CCC2 [compound 235, 5-((S)-7-(5-amino-3-chloro-2-(trifluoromethyl)phenyl)-2-(((S,Z)-2-(fluoromethylene)tetrahydro-1H-pyrrolizin-7a(5H)-yl)methoxy)-7,8-dihydro-5H-pyrano[4,3-d]pyrimidin-4-yl)-3-chloro-N,N-dimethyl-5,6,7,8-tetrahydro-4H-pyrazolo[1,5-a][1,4]diazepine-2-carboxamide]
IC50 [3]: < 10 nM

CN(C)C(=O)c1nn2c(c1Cl)CN(c1nc(OC[C@@]34CCCN3C[C@H](F)C4)nc3c1COC(c1cc(N)cc(Cl)c1C(F)(F)F)C3)CCC2 (stereo partly shown) [compound 236]
IC50 [3]: < 10 nM

CN(C)C(=O)c1nn2c(c1Cl)CN(c1nc(OC[C@@]34CCCN3C[C@H](F)C4)nc3c1COC(c1cc(N)cc(F)c1C(F)(F)F)C3)CCC2 (stereo partly shown) [compound 237]
IC50 [1]: 10 to 30 nM | IC50 [2]: 20.4 nM

CN(C)C(=O)c1nn2c(c1Cl)CN(c1nc(OC[C@@]34CCCN3CC(=C(F)F)C4)nc3c1COC(c1cc(N)cc(F)c1C(F)(F)F)C3)CCC2 (stereo partly shown) [compound 238]
IC50 [1]: 10 to 30 nM | IC50 [2]: 29.3 nM

Cc1cc(N)cc(C2Cc3nc(OC[C@@]45CCCN4C[C@H](F)C5)nc(N4CCCn5nc(C(=O)N(C)C)c(Cl)c5C4)c3CO2)c1C(F)(F)F (stereo partly shown) [compound 239]
IC50 [1]: 10 to 30 nM | IC50 [2]: 12.8 nM

Cc1cc(N)cc(C2Cc3nc(OC[C@@]45CCCN4C/C(=C\F)C5)nc(N4CCCn5nc(C(=O)N(C)C)c(Cl)c5C4)c3CO2)c1C(F)(F)F (stereo partly shown) [compound 240]
IC50 [3]: < 10 nM

Cc1cc(N)cc(C2Cc3nc(OC[C@@]45CCCN4CC(=C(F)F)C5)nc(N4CCCn5nc(C(=O)N(C)C)c(Cl)c5C4)c3CO2)c1C(F)(F)F (stereo partly shown) [compound 241]
IC50 [1]: 31 to 100 nM | IC50 [2]: 58.9 nM

CN(C)C(=O)c1nn2c(c1Cl)CN(c1nc(OC[C@@]34CCCN3C/C(=C\F)C4)nc3c1COC(c1cc(N)cc(Cl)c1C(F)(F)F)C3)CCC2 (stereo partly shown) [compound 242]
IC50 [3]: < 10 nM

CN(C)C(=O)c1nn2c(c1Cl)CN(c1nc(OC[C@@]34CCCN3C/C(=C\F)C4)nc3c1CO[C@H](c1cc(N)ccc1C(F)(F)F)C3)CCC2 [compound 243]
IC50 [1]: 10 to 30 nM | IC50 [2]: 10.7 nM

CN(C)C(=O)c1nn2c(c1Cl)CN(c1nc(OC[C@@]34CCCN3CC(=C(F)F)C4)nc3c1CO[C@H](c1cc(N)ccc1C(F)(F)F)C3)CCC2 [compound 244]
IC50 [1]: 10 to 30 nM | IC50 [2]: 22.2 nM

CN(C)C(=O)c1nn2c(c1Cl)CN(c1nc(OC[C@@]34CCCN3CC(=C(F)F)C4)nc3c1COC(c1cc(N)cc(Cl)c1C(F)(F)F)C3)CCC2 (stereo partly shown) [compound 245]
IC50 [3]: < 10 nM

CN(C)C(=O)c1nn2c(c1Cl)CN(c1nc(OC[C@@]34CCCN3C/C(=C\F)C4)nc3c1COC(c1cc(N)cc(F)c1C(F)(F)F)C3)CCC2 (stereo partly shown) [compound 246]
IC50 [1]: 10 to 30 nM | IC50 [2]: 15.9 nM

COc1c(C(=O)N(C)C)nn2c1CN(c1nc(OC[C@@]34CCCN3C[C@H](F)C4)nc3c1COC(c1c(F)c(N)cc(Cl)c1C(F)(F)F)C3)CCC2 (stereo partly shown) [compound 249]
IC50 [1]: 101 to 500 nM | IC50 [2]: 113 nM

Cc1c(C(=O)N(C)C)nn2c1CN(c1nc(OC[C@@]34CCCN3C/C(=C\F)C4)nc3c1CO[C@H](c1cc(N)cc(Cl)c1C(F)(F)F)C3)CCC2 [compound 300, 5-((S)-7-(5-amino-3-chloro-2-(trifluoromethyl)phenyl)-2-(((S,Z)-2-(fluoromethylene)tetrahydro-1H-pyrrolizin-7a(5H)-yl)methoxy)-7,8-dihydro-5H-pyrano[4,3-d]pyrimidin-4-yl)-N,N,3-trimethyl-5,6,7,8-tetrahydro-4H-pyrazolo[1,5-a][1,4]diazepine-2-carboxamide]
IC50 [3]: < 10 nM

CN(C)C(=O)c1cc2n(n1)CCCN(c1nc(OC[C@@]34CCCN3C/C(=C\F)C4)nc3c1CO[C@H](c1cc(N)cc(Cl)c1C(F)(F)F)C3)C2 [compound 301, 5-((S)-7-(5-amino-3-chloro-2-(trifluoromethyl)phenyl)-2-(((S,Z)-2-(fluoromethylene)tetrahydro-1H-pyrrolizin-7a(5H)-yl)methoxy)-7,8-dihydro-5H-pyrano[4,3-d]pyrimidin-4-yl)-N,N-dimethyl-5,6,7,8-tetrahydro-4H-pyrazolo[1,5-a][1,4]diazepine-2-carboxamide]
IC50 [3]: < 10 nM

Cc1cc(N)cc([C@@H]2Cc3nc(OC[C@@]45CCCN4C/C(=C\F)C5)nc(N4CCCn5nc(C(=O)N(C)C)cc5C4)c3CO2)c1C(F)(F)F [compound 302, 5-((S)-7-(5-amino-3-methyl-2-(trifluoromethyl)phenyl)-2-(((S,Z)-2-(fluoromethylene)tetrahydro-1H-pyrrolizin-7a(5H)-yl)methoxy)-7,8-dihydro-5H-pyrano[4,3-d]pyrimidin-4-yl)-N,N-dimethyl-5,6,7,8-tetrahydro-4H-pyrazolo[1,5-a][1,4]diazepine-2-carboxamide]
IC50 [3]: < 10 nM

CN(C)C(=O)c1nn2c(c1Cl)CN(c1nc(OC[C@@]34CCCN3C[C@H](F)C4)nc3c1CO[C@H](c1cc(N)cc(F)c1C(F)(F)F)C3)CCC2 [compound 402]
IC50 [1]: 10 to 30 nM

Cc1cc(N)cc([C@@H]2Cc3nc(OC[C@@]45CCCN4C/C(=C\F)C5)nc(N4CCCn5nc(C(=O)N6CCC6)cc5C4)c3CO2)c1C(F)(F)F [compound 403]
IC50 [1]: 10 to 30 nM

Cc1cc(N)cc([C@@H]2Cc3nc(OC[C@@]45CCCN4C/C(=C\F)C5)nc(N4CCCn5nc(C(=O)N6CCCC6)cc5C4)c3CO2)c1C(F)(F)F [compound 404]
IC50 [1]: 10 to 30 nM

Cc1cc(N)cc([C@@H]2Cc3nc(OC[C@@]45CCCN4C[C@H](F)C5)nc(N4CCCn5nc(C(=O)N(C)C)c(C)c5C4)c3CO2)c1C(F)(F)F [compound 405]
IC50 [1]: 10 to 30 nM

Cc1c(C(=O)N(C)C)nn2c1CN(c1nc(OC[C@@]34CCCN3CC(=C(F)F)C4)nc3c1CO[C@H](c1cc(N)cc(F)c1C(F)(F)F)C3)CCC2 [compound 407]
IC50 [1]: 10 to 30 nM

CC#Cc1cc(N)cc([C@@H]2Cc3nc(OC[C@@]45CCCN4C[C@H](F)C5)nc(N4CCCn5nc(C(=O)N(C)C)cc5C4)c3CO2)c1C(F)(F)F [compound 408]
IC50 [1]: 10 to 30 nM

CCc1c(C(=O)N(C)C)nn2c1CN(c1nc(OC[C@@]34CCCN3C[C@H](F)C4)nc3c1CO[C@H](c1cc(N)cc(Cl)c1C(F)(F)F)C3)CCC2 [compound 409]
IC50 [1]: 10 to 30 nM
